Assay results as given in patent US20050239738A1, “Genetic inhibition of epidermal growth factor receptor function and carcinoma cell radiosensitization” (priority 2000, published 2005).
Converted amounts (≈) assume the structure as drawn.

Assays:
Assay type in all cases: cell-based, human
[1] = system: EGFR-CD533 expression; test: Doxycycline induction of EGFR-CD533 mRNA and protein (RNase protection, Northern, 35S-Met labeling)
Text: The kinetics of EGFR-CD533 induction and its decay after Dox removal were monitored by metabolic labeling with ^35S-Met as described in the text.

[2] = system: MAPK; test: MAPK immune complex kinase assay
Method: (§1) Dox at 1 μg/ml was added 48 h prior to radiation exposure and cell harvesting with a medium change to RPMI/0.5% FBS with or without Dox for the final 24 h. This medium was replaced by RPMI/0.5% FBS 2 h prior to treatment.
(§2) Immunoprecipitation and Western analysis. For immunochemical analyses, cells frozen at −20° C. were lysed in ice-cold lysis buffer, 25 mM β-glycerophosphate, pH 7.4, 25 mM Tris, pH 7.4, 10% (v/v) glycerol, 1.5 mM EGTA, 0.5 mM EDTA, 1% Triton X-100, 1 mM Na-orthovanadate, 1 mM Na-pyrophosphate, 10 μg/ml aprotinin, 10 μg/ml leupeptin, 1 μm benzamidine, 100 μg/ml PMSF. […] Lysates were incubated with Ab at 4° C. for 3 h, the agarose-Ab immunoprecipitates were washed twice in lysis buffer, once in lysis buffer containing 0.1% Triton X-100, and once in 1× kinase buffer, 25 mM β-glycerophosphate, pH 7.4, 15 mm MgCl2. For Western blot analyses, equal amounts of cellular protein were separated by SDS-PAGE, electroblotted to nitrocellulose, probed with specific Abs against c-Jun protein and c-Jun 0phosphorylated at Ser-63, followed by chemilumescence detection. Expression of Tam 67 in MDA-TR15-EGFR-CD533 cells infected with recombinant adenovirus was determined by Western analysis using a c-Jun Ab specific for the COOH-terminus.
(§3) Immune complex kinase assays.
(§4) Aliquots of the assay mixture were placed on P81 paper and non-specific binding of [^32P]-γ-ATP removed by extensive washing in 180 mM phosphoric acid. Incorporation of ^32P into bound MBP substrate was measured by liquid scintillation spectroscopy (Beckman Instruments Inc, Schaumburg, Ill., USA).

[3] = system: JNK1; test: JNK1 immune complex kinase assay
Method: as §2, §3, §4

[4] = system: c-Jun; test: Western blot of c-Jun protein and Ser-63 phosphorylated c-Jun
Method: Immunoprecipitation and Western analysis. For immunochemical analyses, cells frozen at −20° C. were lysed in ice-cold lysis buffer, 25 mM β-glycerophosphate, pH 7.4, 25 mM Tris, pH 7.4, 10% (v/v) glycerol, 1.5 mM EGTA, 0.5 mM EDTA, 1% Triton X-100, 1 mM Na-orthovanadate, 1 mM Na-pyrophosphate, 10 μg/ml aprotinin, 10 μg/ml leupeptin, 1 μm benzamidine, 100 μg/ml PMSF. Insoluble material was removed by centrifugation at 14 000 g for 10 min, and the clarified protein lysates were divided equally for immunoprecipitation with antibodies against JNKI and MAPK using established techniques (Boulton et al., 1990). Lysates were incubated with Ab at 4° C. for 3 h, the agarose-Ab immunoprecipitates were washed twice in lysis buffer, once in lysis buffer containing 0.1% Triton X-100, and once in 1× kinase buffer, 25 mM β-glycerophosphate, pH 7.4, 15 mm MgCl2. For Western blot analyses, equal amounts of cellular protein were separated by SDS-PAGE, electroblotted to nitrocellulose, probed with specific Abs against c-Jun protein and c-Jun 0phosphorylated at Ser-63, followed by chemilumescence detection. Expression of Tam 67 in MDA-TR15-EGFR-CD533 cells infected with recombinant adenovirus was determined by Western analysis using a c-Jun Ab specific for the COOH-terminus.

[5] = system: MDA-TR15-EGFR-CD533 cells; test: TUNEL assay for apoptosis
Method: TUNEL assay for apoptosis. Cells were placed at a density of 2×10^4 cells into dual well slides and allowed to adhere overnight in RPMI/5FCS. Cells were then exposed, prior to irradiation, for 48 h to Dox or control solute for induction of EGFR-CD533. PD98059 at a final concentration of 10 μM was added 2 h prior to irradiation at 2 Gy. Cells were infected with recombinant Ad-TAM67 for expression of Tam67 for 48 h prior to irradiation. […] Slides were stored at −20° C. until examination by fluorescence microscopy using a fluorescein filter.

[6] = system: MDA-TR15-EGFR-CD533 cells; test: Repeated radiation exposure (5 x 2 Gy) MTT cell growth assay
Method: MDA-TR15-EGFR-CD533 cells were seeded in RPMI/5% FBS at 1000 or 2000 cells/well in 96-well tissue culture plates for control and radiation experiments, respectively. After cell attachment overnight, 50% of the cultures were exposed to Dox at 1 μg/ml. Within 24 h of Dox exposure, drug-exposed and control cultures were irradiated once-daily with 2 Gy for 5 consecutive days.
Growth rate analysis. For irradiation and control conditions, 1000 and 500 cells per well of 24-well plates were seeded, respectively. Cells were maintained in RPMI/5FCS without media change throughout the period of the experiment. After 24 h of seeding, 50% of the plates were treated with 10 μM PD98059 for 2 h while negative controls were exposed to equivalent DMSO concentrations of 1 μl/ml in RPMI/5FCS. This was followed by 2 Gy daily radiation exposures for 5 consecutive days; control cells were sham irradiated. […] Growth rates were quantified relative to absorbance at 540 nm on day 1.

[7] = system: EGFR-WT; test: EGFR-WT Tyr autophosphorylation, immunoprecipitation/Western blot; details: 2 ng/ml EGF, MDA-TR15-EGFR-CD533 cells without Dox
Method: as §1

[8] = MCF-TR5-EGFR-CD533 cells, 48 h Dox exposure
[9] = MDA-TR15-EGFR-CD533 cells, 48 h Dox exposure
[10] = parental MDA-TR15 cells, Dox 48 h
[11] = MDA-TR15-EGFR-CD533 cells, basal activity before irradiation, after pretreatment

## C[C@H]1c2cccc(O)c2C(=O)C2=C(O)[C@]3(O)C(=O)C(C(N)=O)=C(O)[C@@H](N(C)C)[C@@H]3[C@@H](O)[C@@H]21 [Dox, doxycycline]
[1]; 1.0 μg/ml Dox, at 24 h, 35S-Met incorporation, MDA-TR15-EGFR-CD533 cells
  EGFR-CD533 induced: > 90%
[1]; Homo sapiens, MDA-TR15-EGFR-CD533 cells, 48 h exposure, 0.01-1.0 μg/ml, read-out: Dox concentration giving half maximal response of EGFR-CD533 induction
  EC50: 0.1 µg/mL (≈ 0.225 µM)
[1]; [8]
  increase in EGFR-CD533 mRNA levels: 5 fold
  induction of the 110 kD EGFR-CD533 truncated receptor: greater than 20 fold
[1]; [9]
  increase in EGFR-CD533 mRNA levels: greater than 30 fold
  induction of EGFR-CD533 at the protein level: greater than 50 fold
[2]; [10]
  MAPK activity: 16000±1600 c.p.m.
[3]; [10]
  JNK1 activity at time=0: 3500±300 c.p.m.

## COc1cccc(-c2cc(=O)c3ccccc3o2)c1N [PD98059]
[2]; 10 μm PD98059 pretreatment, 2 Gy, MDA-TR15-EGFR-CD533 cells
  inhibition of radiation-induced MAPK activation: > 70%
[2]; [11]
  MAPK activity at time=0: 16900±575 c.p.m.
[3]; 10 μM PD98059, between 5 and 25 min, no radiation
  transient activation of JNK1 without irradiation: 1.35 (±0.02) fold
[3]; 2 Gy, early time points (within 10 min), MDA-TR15-EGFR-CD533 cells
  radiation-induced immediate JNK1 activation: 3.9 (±0.1) fold
[3]; [11]
  JNK1 activity at time=0: 3100±200 c.p.m.
[4]; 10 μM PD98059 2 h
  c-Jun protein levels relative to untreated cells: more than twofold reduction
[4]; 10 μM PD98059 pretreatment, 10 min after 2 Gy
  increase in c-Jun Ser-63 phosphorylation relative to c-Jun protein level: 41 fold
[4]; PD98059 + 2 Gy, sustained up to 60 min
  stimulation of c-Jun phosphorylation under MEK1/2 inhibition compared to radiation alone: fivefold greater
[5]; TUNEL 24 h after single 2 Gy
  apoptosis rate after irradiation: 6.3 (±0.1) %
[5]; TUNEL, without irradiation
  basal apoptosis rate: 3.7 (±0.1) %
[5]; TUNEL, without irradiation, relative to control
  increase in basal apoptosis rate: ~20%
[6]; 5 daily 2 Gy exposures, MTT, day 7 of growth period
  lower cell numbers on day 7 relative to irradiated control cells: 5.0 (±0.03) fold
[6]; un-irradiated, day 7, MTT
  inhibition of cell growth / decrease in cell numbers without irradiation: 25%

## EGF: epidermal growth factor, natural ligand of EGFR
[7]
  activation of EGFR-WT Tyr phosphorylation: 9.8 fold
